According to a melting point compilation (Tetko et al.; mined from patent text by program, amines drawn as free bases though some values may be those of a salt):

Row | Structure (SMILES) | melting point
1 | CC#Cc1ccc(NC(=O)c2cccnc2NCc2ccc(OC)nc2)cc1C(F)(F)F | 109 to 111 °C
2 | CN(C)CCc1c[nH]c2ccc(CCS(=O)(=O)Nc3ccccc3)cc12 | 144 to 146 °C
3 | COc1ccc(Oc2ccc3ccccc3n2)cc1 | 96.5 to 98 °C
4 | COc1cc2nc(N)nc(-c3ccc(C)c(Br)c3Br)c2cc1OC | 233 to 236 °C
5 | Brc1cnc2c(Br)cncc2c1 | 186 to 188 °C
6 | CCn1c(N(C)C)nc2cc(C(F)(F)F)c(Cl)c([N+](=O)[O-])c21 | 121 to 122 °C
7 | CC(C)(Sc1ccncc1)C(=O)O | 190 to 192 °C
8 | Cc1nc(NC(=O)c2cnn3c(C(F)(F)F)cc(-c4ccc(C(F)(F)F)cc4)nc23)sc1S(=O)(=O)N(CCO)CCO | 214 °C
9 | Cc1nc2ccccc2n1Cc1ccc(-n2c(C)nc3cnccc32)cc1 | 184 to 185 °C
10 | O=C(Nc1ccc(-n2nc(C3CC3)cc2C2CC2)cc1)c1ccc2nn[nH]c2c1 | 240 to 246 °C
11 | O=C1CC(Cl)C(=O)N1C1CCCCC1 (centres undefined) | 63 to 64 °C
12 | NC1(Cl)C=CN=C(Cl)N1 (centres undefined) | 55 to 56 °C
13 | Oc1cc2c(nn1)CCCCCCCCCC2 | 188 to 189 °C
14 | c1ccc2c(c1)Sc1ccccc1C1=C2CCNCC1 | 142 to 143 °C
15 | COc1cc(Nc2c(C#N)cnc3cc(/C=C/CCN4CCOCC4)c(OC)cc23)c(Cl)cc1Cl | 141 to 143 °C
16 | O=S(=O)(Nc1ncnc(Cl)c1-c1ccc(Cl)cc1)c1ccc(C(F)(F)F)cc1 | 275 °C
17 | CC1(C)OC(=S)Nc2c(Br)cc(-c3cc(F)cc(C#N)c3)cc21 | 219 to 220 °C
18 | COc1ccc(C#CCCN2CCOC2=O)cc1OC | 78 to 79 °C
19 | CCCCCCCCCCSCCCN=C=O | 89 to 92 °C
20 | O=C1CCC(N2Cc3c(OCc4ccc(CN5CCN(CC6CC6)CC5)cc4)cccc3C2=O)C(=O)N1 (centres undefined) | 176 to 178 °C
21 | CC(=NO)C(C)(C)NCC(F)(F)CNC(C)(C)C(CCn1ccnc1[N+](=O)[O-])=NO | 90 to 92 °C
22 | C=CCn1nc(-c2ccc(OC)cc2)c(-c2ccc(OC)cc2)cc1=O | 114 to 115 °C
23 | CSCC[C@H](NC(=O)[C@@H](N)CC(C)C)[C@@H](O)c1nccs1 | 83 to 85 °C
24 | CC(C)C(=O)Nc1nsnc1-c1c(Cl)cccc1Cl | 112 to 117 °C
25 | Cc1cc(C(N)=O)ncc1C(SCCC=C(F)F)c1c(F)ccc(F)c1F (centres undefined) | 97 to 98 °C
26 | COc1c(N2CCC(=NO)CC2)c(F)cc2c(=O)c(C(=O)O)cn(C3CC3)c12 | 258 to 261 °C
27 | ClCC=C(c1ccc(Br)cc1)c1cccnc1 | 156 to 159 °C
28 | O=S(=O)(CC(Br)(CBr)c1cccc(Cl)n1)C1CC1 (centres undefined) | 75 °C
29 | Cc1ccc(Oc2noc(=O)n2S(=O)(=O)c2c(C)noc2C)c(C)c1 | 135 to 136 °C
30 | CC(C)c1cccc(C(C)C)c1NC(=O)C1CC2=C(CCCCCCCCCC2)C1=O (centres undefined) | 225 to 229 °C

Further lines, results first:

Row | melting point | Structure (SMILES)
31 | 50 to 51 °C | O=C(N=NC=C(Cl)Cl)c1ccccc1
32 | 81 to 83 °C | CCCCCCCCCCCCCCCCCCOc1cc(C(=O)O)cc(C(=O)OC)c1
33 | 241 to 243 °C | CCn1c(=O)c2[nH]c(/C=C/c3cccc(Oc4ccccc4)c3)nc2n(CC)c1=O
34 | 275 to 278 °C | NC(=O)c1cc2c(-c3cccc(NC(=O)c4cccc(C(F)(F)F)c4)c3)ncnc2s1
35 | 206 to 208 °C | CC(S)Cn1c(=O)[nH]c2ccccc2c1=O (centres undefined)
36 | 130 to 132 °C | CSC1=Nc2ccccc2C(=O)N(C)C1c1ccccc1 (centres undefined)
37 | > 240 °C | Cc1cc(C(=O)O)cc2c3ccccc3n(Cc3ccccc3)c12
38 | 57 to 61 °C | CCCn1nc(C(C)C)c(C(=O)OCc2ccccc2C(=O)c2ccccc2)c1Cc1ccc(-c2ccccc2S(=O)(=O)NC(=O)OC(C)(C)C)c(F)c1
39 | 157 to 158 °C | COc1cc(-n2nc(C(F)(F)F)cc2-c2ccc(S(C)(=O)=O)cc2)ccc1Cl
40 | 120 to 122 °C | CCCCSc1cc(C(=O)OCC)cc(S(N)(=O)=O)c1Cc1ccccc1
41 | 188 to 189 °C | Cc1ccc(S(=O)(=O)n2c(-c3cn(C)c4ccc(C=O)cc34)cc3cccnc32)cc1
42 | 90 °C | Cc1cn(C2OC(COC(=O)c3ccccc3)C(OC(=O)c3ccccc3)C2OC(=O)c2ccccc2)c(=O)[nH]c1=O (centres undefined)
43 | 205 °C | CC(=O)c1ccc(N=C(C)c2ccccc2)cc1
44 | 118 °C | CCCCCCCNC(=O)Nc1ccccc1C(=O)NCCC(c1ccccc1)c1ccccc1
45 | 132 to 134 °C | Cc1c(C(=O)c2ccccc2)c(=O)n(C)c(=O)n1C
46 | 164 to 166 °C | Cc1cccc(C)c1NC(=O)c1ccc(S(C)(=O)=O)cc1
47 | 245 °C | COc1cccc2c1C(=O)c1nc(-c3ccccc3)sc1C2=O
48 | 114 to 120 °C | Cc1cc(F)ccc1-c1nc(N[C@@H](C)CO)nc2c1ccc(=O)n2-c1ccccc1F
49 | 90 to 91 °C | CCOP(=O)(NN=C(c1ccc(Cl)cc1)c1ccc(OS(C)(=O)=O)cc1)OCC
50 | 101 to 103 °C | NCCNC(=O)Nc1ccccc1C(=O)NCC1CCN(C(c2ccccc2)c2ccccc2)CC1

Row | melting point | Structure (SMILES)
51 | 110 to 118 °C | CCN(CC)c1ccc(/C=C/C(=O)CC(=O)/C=C/c2ccc3cc[nH]c3c2)cc1
52 | 138 to 140 °C | COC(=O)C[C@H]1COS(=O)(=O)N1C(=O)OCC1c2ccccc2-c2ccccc21
53 | 190 to 192 °C | CC(=O)OCC1OC(n2cc(Cc3ccc(C4CC4)cc3)c3c(F)cccc32)C(OC(C)=O)C(OC(C)=O)C1OC(C)=O (centres undefined)
54 | 71 to 73 °C | Cc1cccc(OC(C)(C)C(=O)O)c1C
55 | 293 to 294 °C | CCCCc1nc2c(C)c(Cl)cc(C(=O)O)c2n1Cc1ccc(C(=O)O)cc1
56 | 175 °C | Cc1cc(-c2cscn2)ccc1-c1cc(C(F)(F)F)nn1-c1ccc(S(C)(=O)=O)cc1
57 | 66 to 67 °C | COC(=O)CCSC(SCCC(=O)OC)c1cccc(C=Cc2nc3cc(Cl)ccc3o2)c1
58 | 64 to 66 °C | CC(C)(C)C(=O)Oc1ccc(C(=O)CBr)cc1OC(=O)C(C)(C)C
59 | 173 °C | COc1ccc(S(=O)(=O)N(C)c2ccc(Cl)cc2C(O)c2ccccc2Cl)cc1OC (centres undefined)
60 | 169 to 170 °C | CNC(=O)C(CCn1c(COc2ccc(Cl)cc2)nc2c(C)cccc21)Cc1ccccc1 (centres undefined)
61 | 125 to 127 °C | COC(=O)c1ccc(OC(=O)c2ccc(OC)c(C34CC5CC(CC(C5)C3)C4)c2)cc1O
62 | 120 to 123 °C | O=C(CC1(c2ccccc2)CCCCC1)C(=O)Nc1ccc2c(c1)COC2=O
63 | 109 to 111 °C | CCOC(=O)C1(C(=O)OCC)CC(c2ccccc2[N+](=O)[O-])C(O)N1C=O (centres undefined)
64 | 148 to 150 °C | CCCCc1nc(Cl)c(COC)n1Cc1ccc(-c2ccccc2NS(=O)(=O)C(F)(F)F)cc1
65 | 154 to 155 °C | COc1ccc(-n2nc(C)c(CC(=O)O)c2C)cc1
66 | 100 to 106 °C | CC(C)C[C@H](NC(=O)CCS(=O)(=O)c1ccccc1)C(=O)N[C@@H](C(C)C)[C@@H](O)c1c(-c2ccccc2)c1=O
67 | 72 to 74 °C | Cc1ncc(-c2ccccc2)s1
68 | 134 °C | CC(=O)NCCOc1ccc(N)cc1O
69 | 72 to 75 °C | Cc1nccn1CCCCC(=O)NCc1ccc(Cl)cc1
